Reference: PMC6522524 (Nature Communications, 2019)
Several values for one entry are separate records, joined by “and”; a condition that tells them apart may be missing. Equal values may be shown once. Read-outs that look alike come from different tables or passages of the source.

Experiments:
[1] = system: HBV transcripts in HepG2 cells transfected with pHBV1.2×; assay: HBV transcription in HepG2 cells transfected with pHBV1.2×, quantitative RT-PCR; assay type: cell-based, Hepatitis B virus
Experimental: Quantitative RT-PCR with primers that detect three HBV regions (R1, R2, and R3, Supplementary Table 1) was used to measure HBV transcription. This RT-PCR detects pgRNA and precore RNA (3.5 kB), two HBV surface-encoding RNAs (2.5 kB and 2.1 kB), and HBx-encoding RNA (0.7 kB)[55]. PCR conditions were 95 °C for 10 min initially, then 50 cycles of 95 °C for 30 s, 60 °C for 60 s and 72 °C for 30 s, and finally 1 cycle of 95 °C for 60 s, 55 °C for 30 s and 95 °C for 30 s. […]
a Schematic depiction of the R1, R2, and R3 regions of the HBV genome that were targeted by quantitative RT-PCR to quantitate the transcription of pgRNA, two HBV surface RNAs, and HBx RNA. […]
c Region 3 transcription in ciclopirox-treated (b) HepG2.2.15 cells and (c) HepG2 cells transfected with the pHBV1.2× plasmid. d The promoter analysis of ciclopirox-treated HepG2 cells transfected with pGL3/HBV pgRNA promoter or pGL3/HBV sRNA promoter. The data shown in (b – d) represent two

[2] = target: HBV core protein Y118F mutant in Huh-7 cells (Hepatitis B virus genotype C, UniProt P0C6H6, Y118F); assay: Intracellular HBV capsid assembly, Huh-7 cells transfected with pCDNA3-Core Y118F; assay type: cell-based
[3] = target: T1, Cp149 (truncated HBV core protein) (Hepatitis B virus genotype D subtype ayw, UniProt P03146); assay: biochemical
T1 construct: Cp149 (amino acids 1–149) is a truncated form of the HBV core protein; made in house; host or cells: Escherichia coli

in vitro [4] = assay type: cell-based, human; conditions: human, Cell viability(%)
Experimental: (§1) Supplementary Fig. 11. Effect of FBS serum iron level on Huh-7, HepG2, and HepG2.2.15 cell
(§2) a Cells were maintained in medium supplemented with 2% FBS or 10% FBS for 1 day and treated with
(§3) After 6 days, cytotoxicity was measured. b Cells were treated with
(§4) the ± SD. *p < 0.05 by unpaired two-tailed Student’s t-test.

in vitro [5] = assay type: cell-based, human; conditions: human, Cell viability(%); remark: listed apart in the source
Experimental: as §1, §2, §3, §4

[6] = system: HBsAg in HepG2 cells transfected with pHBV1.2×; assay: Secreted HBsAg ELISA, HepG2 cells transfected with pHBV1.2×; assay type: cell-based, Hepatitis B virus
Experimental: Secreted HBsAg (f, i respectively) was quantified by ELISA.
An HBsAg ELISA kit (KA0286, Abnova) was used to quantify HBsAg protein. Briefly, culture media were incubated in individual wells of the capture plates for 2 h. After washing, horseradish peroxidase-labeled rabbit anti-HBV surface antibody was added, followed by incubation for an additional 2 h. The substrate solution was added for 15–60 min and absorbance at 450 nm was measured.

BALB/c male mice = conditions: mouse, in vivo, po
Experimental: Five mice were included in each group. Mortality was monitored daily, and bodyweight was measured every other day. On day 28, blood was taken from the orbital sinus, and white blood cells, red blood cells and platelets were counted. Blood urea nitrogen, creatinine, glucose, total bilirubin, total cholesterol, triglyceride, albumin, total protein, aspartate aminotransferase, alanine aminotransferase (ALT), sodium, potassium, and chloride were measured. Urinalysis was performed including urobilinogen, glucose, bilirubin, ketone, specific gravity, blood, pH, protein, nitrate, and leukocytes.
Supplementary Table 3. Mean numbers of blood cells, and parameters for kidney and liver
Data are expressed as means ± standard deviations.
Abbreviations: WBC, white blood cell, AST, aspartate transaminase; ALT, alanine transaminase; ALP,
alkaline phosphatase; BUN, blood urea nitrogen; Na, sodium; K, potassium; Cl. Chloride; S.G, specific

[7] = system: HBV replicative plasmid pAAV-HBV1.2× in C57BL/6 mice; assay: Hydrodynamic injection mouse model (pAAV-HBV1.2×, C57BL/6 mice); assay type: in vivo
HepG2.2.15 cells = conditions: 0.1–10 μM, 6 days
patients = conditions: cited from earlier work
in vitro [8] = conditions: human, Cell viability(%)
in vitro [9] = conditions: human, Cell viability(%); remark: listed apart in the source
[10] = ref https://www.drugbank.ca/; cited from earlier work
[11] = system: HBV cccDNA in Huh-7-NTCP cells; assay: In vitro HBV infection model, Huh-7-NTCP cells: intracellular cccDNA
[12] = 5 mg per kg oral daily, by day 5

Cc1cc(C2CCCCC2)n(O)c(=O)c1 [Ciclopirox, 6-cyclohexyl-1-hydroxy-4-methyl-2(1 H)-pyridone]
HBV transcripts levels [1]: no effect
reduction in sensitivity of Y118F compared with the wild-type [2]: approximately 4 fold
IC50 [3]: 445 ± 17 nM
viability at 0.1 µM (in vitro [4]; AVERAGE): 99.9%
viability at 0.2 µM (in vitro [4]; AVERAGE): 99.8%
viability at 0.5 µM (in vitro [4]; AVERAGE): 99.7%
viability at 1 µM (in vitro [4]; AVERAGE): 99.7%
viability at 2 µM (in vitro [4]; AVERAGE): 98%
viability at 5 µM (in vitro [4]; AVERAGE): 96.5%
viability at 10 µM (in vitro [4]; AVERAGE): 94.6%
viability at 0.1 µM (in vitro [4]; individual samples): 98.5%
viability at 0.2 µM (in vitro [4]; individual samples): 98.3%
viability at 0.5 µM (in vitro [4]; individual samples): 98.2%
viability at 1 µM (in vitro [4]; individual samples): 96.6%
viability at 2 µM (in vitro [4]; individual samples): 95.4%
viability at 5 µM (in vitro [4]; individual samples): 91.5%
viability at 0.1 µM (in vitro [5]; AVERAGE): 100%
viability at 0.2 µM (in vitro [5]; AVERAGE): 100%
viability at 0.5 µM (in vitro [5]; AVERAGE): 99.6%
viability at 1 µM (in vitro [5]; AVERAGE): 99.1%
viability at 2 µM (in vitro [5]; AVERAGE): 97.4%
viability at 5 µM (in vitro [5]; AVERAGE): 95.2%
viability at 10 µM (in vitro [5]; AVERAGE): 93.6%
viability at 0.1 µM (in vitro [5]; individual samples): 99.9%
viability at 0.2 µM (in vitro [5]; individual samples): 99.6%
viability at 0.5 µM (in vitro [5]; individual samples): 99.4%
viability at 1 µM (in vitro [5]; individual samples): 98.9%
viability at 2 µM (in vitro [5]; individual samples): 97%
viability at 5 µM (in vitro [5]; individual samples): 93%
viability at 10 µM (in vitro [5]; individual samples): 93.5%
HBsAg production [6]: no effect
Cl (BALB/c male mice; 1 mg/kg/day): 100.0 ± 1.0 mmol/L
Cl (BALB/c male mice; 5 mg/kg/day): 99.0 ± 1.0 mmol/L
HBV core protein levels in the liver [7, 12]: reduced HBV core protein levels in the liver
serum HBV DNA levels [7, 12]: significantly lowered serum HBV DNA levels
HBsAg, AVERAGE ([7]; mouse, in vivo): 278.443 ng/mL and 288.165 ng/mL and 304.224 ng/mL and 310.116 ng/mL
cytotoxicity (HepG2.2.15 cells): no significant cytotoxicity
Dose-limiting gastrointestinal toxicities (patients; 80 mg per m^2 four times daily, oral): Dose-limiting gastrointestinal toxicities were observed
anti-apoptotic gene expression in peripheral blood cells (patients; once daily >10 mg per m^2, oral): suppressed anti-apoptotic gene expression in peripheral blood cells
viability at 0.1 µM (in vitro [8]; AVERAGE): 98.8%
viability at 0.2 µM (in vitro [8]; AVERAGE): 102%
viability at 0.5 µM (in vitro [8]; AVERAGE): 97.7%
viability at 1 µM (in vitro [8]; AVERAGE): 98.7%
viability at 2 µM (in vitro [8]; AVERAGE): 99.1%
viability at 0.1 µM (in vitro [8]; individual samples): 98.8%
viability at 0.2 µM (in vitro [8]; individual samples): 102%
viability at 0.5 µM (in vitro [8]; individual samples): 97.6%
viability at 1 µM (in vitro [8]; individual samples): 98.6%
viability at 2 µM (in vitro [8]; individual samples): 99%
viability at 0.1 µM (in vitro [9]; AVERAGE): 99.9%
viability at 0.2 µM (in vitro [9]; AVERAGE): 99.2%
viability at 0.5 µM (in vitro [9]; AVERAGE): 99.4%
viability at 1 µM (in vitro [9]; AVERAGE): 99.9%
viability at 2 µM (in vitro [9]; AVERAGE): 99.4%
viability at 5 µM (in vitro [9]; AVERAGE): 99.2%
viability at 10 µM (in vitro [9]; AVERAGE): 99.8%
viability at 0.1 µM (in vitro [9]; individual samples): 98.9%
viability at 0.2 µM (in vitro [9]; individual samples): 95.7%
viability at 0.5 µM (in vitro [9]; individual samples): 98.9%
viability at 1 µM (in vitro [9]; individual samples): 99.9%
viability at 2 µM (in vitro [9]; individual samples): 99.6%
viability at 5 µM (in vitro [9]; individual samples): 97.6%
viability at 10 µM (in vitro [9]; individual samples): 99.9%
pKa value (acidic) [10]: 6.84
cccDNA levels [11]: dropped markedly
